Assay results: US12427192B2, “Water soluble adjuvant and composition containing same” (Sumitomo Pharma Co., Ltd., priority 2019, dated 2025)

Test system: HLA-A*02:01 transgenic mouse
Test: Test 16: in vivo adjuvant activity, cocktail vaccine k (liposome formulation 1), IFNγ ELISPOT
Conditions: added to cocktail vaccine k (liposome formulation 1); 0.4 nmol per body, twice; FIG. 19
Description: Evaluation of In Vivo Adjuvant Activity in HLA-A*02:01 Transgenic Mouse
The in vivo adjuvant activity of the compound of Example 1 was evaluated in the following procedure. To a vaccine (liposome formulation 1) comprising Compound of formula 4 prepared in Reference example 8 and Peptide SEQ ID No. 3 prepared in Reference example 3 (hereinafter, referred to as “cocktail vaccine k”) was added the compound prepared in Example 1 to prepare a vaccine. The vaccine was administered to a HLA-A*02:01 transgenic mouse, and the adjuvant activity of the vaccine was evaluated by the method of testing antigen-specific CTL induction.
For example, the above liposome formulation 1 was prepared as follows. 47.1 mg of hydrogenated soybean phosphatidylcholine and 15.47 mg of cholesterol were dissolved in t-butyl alcohol, and the mixture was lyophilized. […]
Cocktail vaccine k was injected to mice intradermally at the tail base area in an amount for administering 500 μg of Compound of formula 4 per body and 375 μg of Peptide SEQ ID No. 3 per body. […] Then, after removal of the supernatant from the wells, stained spots on the ELISPOT plate were counted.

CCCCCNc1nc(N)nc(C)c1Cc1ccc(CN(C)CCOCCOCCOCCOCCO)cc1OC [Example 1, 1-(4-{[2-amino-4-methyl-6-(pentylamino)pyrimidin-5-yl]methyl}-3-methoxyphenyl)-2-methyl-5,8,11,14-tetraoxa-2-azahexadecan-16-ol·trifluoroacetate]
CTL counts responsive to Peptide SEQ ID No. 1 compared with adding no compound: more
